Where “and” joins values, the source holds several entries; their conditions need not be identical. Equal entries are not always repeated.
What was measured:
[1] = Steady-state blood glucose (Example 42); format: in vivo, Mus musculus; conditions: Compound B 0.3 mg/kg, Compound A 60 mg/kg, alone or combined; returned to normal within an hour of dosing
Method: Blood glucose levels were measured via a tail knick using a FreeStyle® handheld blood glucose monitor (Abbott Laboratories) at 5, 15, 30, 60, and 90 minutes after the last dose (Day 29).

[2] = system: MDA-MB-361 xenografts; assay: Antitumor activity and tumor regrowth, MDA-MB-361 xenografts (Example 42); format: in vivo, Mus musculus
Method: (room temperature), shielded from light. The test article Compound A was prepared in 5% NMP+95% PEG400 every 5 to 7 days and stored at approximately 25° C. (room temperature), shielded from light. The control article used in this study was 5% NMP+95% PEG400. Compounds were completely dissolved in NMP by sonication, followed by the addition of an appropriate volume of PEG400, and the final solution was vortexed and sonicated to ensure thorough mixing.
Low-passage MDA-MB-361 cells were grown in Eagle's Minimal Essential Medium (EMEM) media supplemented with 20% fetal bovine serum (FBS) and 1× penicillin/streptomycin (Invitrogen, Carlsbad, Calif., USA) until approximately 80% confluency was reached. Before injection, the cells were detached with GIBCO® trypsin (Invitrogen), washed twice with phosphate-buffered saline (PBS), and resuspended in Roswell Park Memorial Institute (RPMI) media (Invitrogen) without supplements. Cells were resuspended to a final concentration of 5×10^7 cells/mL in RPMI media without supplements. […]
Female 5 to 6-week old female (athymic nu/nu) nude mice were inoculated SC in the flank with 5.0×10^6 MDA-MB-361 cells. Tumor growth was monitored with vernier calipers. The MTV was calculated using the formula V=W^2×L÷2. […] Tumor growth and body weight were measured twice weekly. Percent TGI and body weight change were calculated on Day 29. […] The remaining mice continued on study until Day 65, and tumor size and body weight in these mice were measured every 9 to 11 days.
Antitumor activity was determined by calculating the percent TGI using Equation 1: Percent TGI)=(MTV of the control group−MTV of a treated group)÷MTV of the control group×100
Tumor growth delay was determined by calculating the time until MTV in a given treatment group reached 1000 mm^3 versus the time until MTV in the control group reached 1000 mm^3.
The differences in trends of tumor growth over time between pairs of treatment groups were assessed using linear mixed-effects regression models. These models account for the fact that each animal was measured at multiple time points. […]

[3] = system: PTEN mutant cells; assay: Western blot of Akt, S6, 4EBP phosphorylation in PTEN mutant cells; format: cell-based; conditions: PTEN-mutant cell line; FIG. 12B
[4] = system: PI3K pathway in MDA-MB-361, MDA-MB-453 and SK-Br3 cells; assay: PI3K pathway Western blot in cell lines with elevated PI3Kα activity; format: cell-based, human; conditions: 2 h treatment; MDA-MB-361, MDA-MB-453, SK-Br3
Method: Cells comprising one or more mutations in PI3Kα, including but not limited to breast cancer cells (e.g., MDA-MB-361, T47D, SKOV-3), and cells comprising one or more mutations in PTEN including but not limited to prostate cancer cells (e.g., PC3), are typically grown in cell growth media such as DMEM supplemented with fetal bovine serum and/or antibiotics, and grown to confluency. Cells are then treated with various concentrations of test compound for about 2 hours and subsequently lysed in cell lysis buffer. Lysates are subjected to SDS-PAGE followed by Western blot analysis to detect downstream signaling markers, including but not limited to pAKT(S473), pAKT(T308), pS6, and p4E-BP1.
MDA-MB-361(PIK3CA-E545K), MDA-MB-453 (PIK3CA-H1047R), and SK-Br3 (Her2) cells were treated with various concentrations of Compound A for 2 h and subsequently lysed. Lysates were subjected to SDS-PAGE followed by Western blot analysis as described above to detect downstream pathway markers.

[5] = system: tumor cells harboring PI3K α mutations; assay: Proliferation of tumor cells with or without PI3K α mutations; format: cell-based; conditions: FIG. 13
[6] = system: 786-O cells (non-mutated PI3Kα) tumors; assay: 786-O human kidney carcinoma xenograft; format: in vivo, mice; conditions: Compound A orally 60 and 120 mg/kg; 1 mg/kg (QD) oral solution
Method: Compound A was administered orally at 60 and 120 mg/kg and compound A was administered orally as a solution at 1 mg/kg (QD). For example, a PI3Kα inhibitor is compared to a kinase inhibitor with specificity for mTor. […] FIG. 6C also provides biochemical potency data for the two compared inhibitors. PI3 Kinase α, β, γ and δ activity was assayed using the PI3 Kinase HTRF® assay kit (Millipore Corporation). Purified recombinant PI3Kα, PI3Kβ, PI3Kγ and PI3Kδ were obtained from Millipore Corporation. […] Emission ratios were converted into percent inhibitions and imported into GraphPad Prism software. […] IC50 values were determined using a nonlinear regression model available in GraphPad Prism 5.

steady-state blood glucose level after the last dose (Day 29) [1]: slight increase
SMILES: Nc1nc2cc(-c3ccc4ncc(C(=O)N5CCOCC5)n4c3)ccc2o1 [Compound A]
%TGI (Day 29) ([2]; Compound B 0.3 mg/kg, Compound A 60 mg/kg, alone or combined, PO QD 30 days, Day 29): 77.4%
MTV on Day 29 ([2]; Compound B 0.3 mg/kg, Compound A 60 mg/kg, alone or combined, PO QD, n = 8): 165 mm^3 and 165 ± 105.8 mm^3
%TGI (Day 65) ([2]; based on the control group (n = 4) on Day 65): 69.5%
inhibition of Akt phosphorylation at serine 473 [3]: reduced inhibition
inhibition of the PI3K pathway (Western blot, FIG. 11) [4]: inhibition of the PI3K pathway
inhibition of proliferation of tumor cells [5]: preferentially inhibits proliferation
inhibition of kinase activity and tumor growth in 786-O model (FIG. 6) [6]: decreased activity
